The values that follow come from publication PMC5684361, “Selectivity and ligand-based molecular modeling of an odorant-binding protein from the leaf beetle Ambrostoma quadriimpressum (Coleoptera: Chrysomelidae) in relation to habitat-related volatiles” (Scientific Reports, 2017).

Entries after “also recorded” stand apart in the source; their conditions may differ. Read-outs that look alike come from different tables or passages of the source.

For one assay, the target named is AquaOBP4. Kind of assay: Fluorescence competitive binding assay with 1-NPN reporter. Details: species or system Ambrostoma quadriimpressum. The note with it: for binding to AquaOBP4 (1-NPN displacement): first-round screening. From the text: Binding affinity was primarily tested with a panel of 40 A. quadriimpressum habitat-related compounds, most of which are abundantly distributed in elms and A. quadriimpressum. Additionally, one newly identified repellent, cinnamaldehyde, was included[25],[27],[28]. After the molecular model of AquaOBP4 was established, we selected two additional compounds, which also came from elms and A. quadriimpressum, for model validation. All of the compounds were purchased from Sigma-Aldrich (Millipore Sigma, USA) with purities of greater than 95%. The CAS numbers, structures and sources of the tested compounds are listed in Table 2, and detailed information (including content) for each odorant is provided in Table S1.
N-phenyl-1-naphthylamine (1-NPN) was used as a reporter to measure the affinity of the fluorescent 1-NPN ligand to proteins. The fluorescence spectra were recorded using a Fluoromax-4 spectrofluorometer (HORIBA Jobin Yvon, New York, USA) with 2 µM protein in 50 mM ammonium acetate (pH 7.2) at room temperature; the compounds and 1-NPN were dissolved in high-performance liquid chromatography (HPLC)-grade methanol at a concentration of 1 mM. Parameter selection was such that the slit widths for both excitation and emission were 10 nm. The reporter was excited at 337 nm, and the emission spectra were recorded between 380 and 500 nm. The AquaOBP4 saturation curve was tested using 1-NPN at 2 to 14 µM, and the affinities of the compounds were estimated using 2 µM 1-NPN and 10 to 70 µM concentrations of the compounds. The curves were then linearized using Scatchard plots. IC50 and Kd values were analyzed using Prism 6 (GraphPad Software, USA), and Ki values were calculated using the following equation: Ki = [IC50]/1 + [1-NPN]/Kd, where [1-NPN] is the concentration of dissociative 1-NPN and Kd is the dissociation constant of the protein/1-NPN complex. To investigate the response of AquaOBP4 at low pH, the fluorescence binding affinity between AquaOBP4 and one of the best ligands was measured at pH 5. Then, 50 mM ammonium acetate (pH 5) was used as a buffer to dissolve the AquaOBP4 protein.

The test system of assay [1] is antennae of A. quadriimpressum. Kind of assay: Electroantennogram (EAG) responses of binding odorants. The note with it: 0.1, 1 and 10 µg/µl in paraffin oil; normalized to negative control. In kind it is in vivo, Ambrostoma quadriimpressum.
Assay [2] relates to A. quadriimpressum adults. Kind of assay: Y-tube olfactometer behavioral test. To be noted: 10 µg/µl in paraffin oil (methods), 1 µg/µl; vs paraffin oil control; N = 90. Type of assay: in vivo, Ambrostoma quadriimpressum. Here is the method: The responses of A. quadriimpressum to the three best ligands were assessed in a Y-tube olfactometer. The compounds were tested at an intermediate concentration of 10 µg/µl in paraffin oil. In these assays, 20 μl of the odorant was applied to a piece of filter paper (25 × 25 mm), which was then placed in one of the olfactometer arms. In the other arm, 20 μl of paraffin oil was used as a negative control. Thirty beetles (15 males and 15 females) were individually tested, with three replicates for each individual (for a total of 90 replicates). A red light source was used in the darkroom to avoid light interference. For the Y-tube (1-cm diameter, 100-cm base length, 10-cm arm length), one small hole was cut into the base of the Y-tube at 10 cm for releasing beetles. The source of the air that passed through the Y-tube was a pressurized tank of pure air. The air was first filtered through active carbon and then humidified by bubbling it through a bottle filled with double-distilled (dd) water before entering the Y-tube. The air flow traveled through both arms of the Y-tube olfactometer at a speed of 300 ml/min. Each individual beetle was placed at the entrance of the olfactometer (Fig. 1), and their “choice” was recorded when the beetle entered an arm and remained there for 30 s. If an insect made no choice within 3 min, the result was recorded as “no-choice”. […]

Assay [3] has as its system antennae of A. quadriimpressum. Details: method as in previous results of the authors. The note with it: ref previous results of the authors; cited from earlier work.
The test system of the next assay is A. quadriimpressum. On the set-up: method as in doi:10.1653/024.099.0212. To be noted: cited from earlier work.
[4] abbreviates: Table 3, pH 7.2, 2 µM 1-NPN, 2 µM protein, compounds 10 to 70 µM.
The mark [5] stands for this setting: Table 3 and text, pH 7.2, 2 µM 1-NPN, calculated from IC50.

What is called pKi is the Ki on a negative log10 scale, so that one unit is a factor of ten. A low value points to a large Ki. As usually defined, the IC50 is the concentration needed to halve the response being measured. The low end stands for higher potency, the high end for lower potency. For orientation: Ki means the equilibrium dissociation constant of an inhibitor or competing ligand from its target. As to Isoeugenol, the pKi at AquaOBP4 (Table 4) is 3.77. On AquaOBP4 (Table 4, pH 7.2, 2 µM 1-NPN), this molecule showed an IC50 of 321 µM and a Ki of 171 µM.
Take `COC(=O)c1ccccc1` [Methyl benzoate]: the “binding to AquaOBP4 (1-NPN displacement)” value in the assay with AquaOBP4 (pH 7.2) was “did not bind; also recorded: no binding”.
Turning to `CC/C=C\CCOC(=O)c1ccccc1` [cis-3-Hexenyl benzoate], the IC50 at AquaOBP4 (setting [4]) came to 65.8 µM; on AquaOBP4 (Table 4, pH 7.2, 2 µM 1-NPN), 65.8 µM. For the same molecule, on AquaOBP4 (setting [5]), the Ki is 35 µM. In addition, the pKi at AquaOBP4 (Table 4) was 4.46.
One may read the Kd as a measure of binding affinity in units of concentration. With `c1ccc(Nc2cccc3ccccc23)cc1` [1-NPN, N-phenyl-1-naphthylamine, reference compound], the Kd at AquaOBP4 (pH 5) is 1.49 ± 0.08 µM; at AquaOBP4 (pH 7.2, 2 µM protein, 1-NPN 2 to 14 µM), 2.27 ± 0.16 µM.
In the case of `CC(=O)Oc1ccccc1` [Acetic acid, Phenyl ester], in the assay on AquaOBP4 (pH 7.2), the “binding to AquaOBP4 (1-NPN displacement)” value is “did not bind”.
Same read-out and setting: as for `CC/C=C\CCOC(C)=O` [Leaf acetate], the entry is “no binding”.
With `CCCCOC(=O)c1ccccc1C(=O)OCCCC` [Dibutyl phthalate], the EAG response entry in assay [1] is reported as “strong EAG responses”. The IC50 at AquaOBP4 (setting [4]) worked out at 45.6 µM; at AquaOBP4 (Table 4, pH 7.2, 2 µM 1-NPN) it was 45.6 µM. Besides, on AquaOBP4 (setting [5]), the Ki was 24.2 µM. This molecule yielded a pKi on AquaOBP4 (Table 4) of 4.62. Further, the “attraction of A. quadriimpressum adults in Y-tube olfactometer” value in assay [2] is “slightly higher attractiveness”.
For `CC(C)COC(=O)c1ccccc1C(=O)OCC(C)C` [Diisobutyl phthalate], the EAG response entry in assay [1] was “strong EAG responses”. The half-inhibitory concentration (IC50) on AquaOBP4 (setting [4]) amounted to 50.4 µM; on AquaOBP4 (Table 4, pH 7.2, 2 µM 1-NPN) it was 50.4 µM. In addition, the inhibition constant (Ki) is 26.8 µM at AquaOBP4 (setting [5]) and 26.8 µM on AquaOBP4 (Table 4, pH 7.2, 2 µM 1-NPN). The molecule further had a pKi on AquaOBP4 (Table 4) of 4.57.
For `O=C/C=C/c1ccccc1` [Cinnamaldehyde], in assay [3], the “physiological response on the antennae of A. quadriimpressum” value was “strong physiological response”. For the same molecule, the “repellent / antifeedant effect against A. quadriimpressum” value is given as “strong repellent” with A. quadriimpressum and “antifeedant” with A. quadriimpressum (listed as cinnamaldehyde). The IC50 was 149 µM on AquaOBP4 (setting [4]) and 149 µM on AquaOBP4 (Table 4, pH 7.2, 2 µM 1-NPN). For the same molecule, the Ki at AquaOBP4 (setting [5]) is 79.3 µM; on AquaOBP4 (Table 4, pH 7.2, 2 µM 1-NPN), 79.3 µM. On AquaOBP4 (Table 4), the pKi was 4.10.
For `CC(=O)/C=C/C1=C(C)CCCC1(C)C` [β-Ionone], the half-maximal inhibitory concentration (IC50) worked out at 56.6 µM on AquaOBP4 (setting [4]) and 56.6 µM at AquaOBP4 (Table 4, pH 7.2, 2 µM 1-NPN). Moreover, the inhibitory constant (Ki) at AquaOBP4 (setting [5]) was 30.1 µM. The negative-log Ki (pKi) at AquaOBP4 (Table 4) was determined as 4.52.
As for `CCCCCCCCOC(=O)c1ccccc1C(=O)OCCCC` [Butyl octyl phthalate], the EAG response result in assay [1] is recorded as “strong EAG responses”. For the same molecule, the Ki at AquaOBP4 (Figure 6 legend, 1-NPN 2 μM) is 12.7 µM; at AquaOBP4 (Table 4, pH 7.2, 2 µM 1-NPN) it was 12.7 µM; at AquaOBP4 (pH 5), 16.8 µM. This molecule gave a pKi on AquaOBP4 (Table 4) of 4.90. This molecule displayed an IC50 at AquaOBP4 (Table 4, pH 7.2, 2 µM 1-NPN) of 23.9 µM.
`COC(=O)c1ccccc1O` [Methyl salicylate]: the “binding to AquaOBP4 (1-NPN displacement)” value in the assay with AquaOBP4 (pH 7.2) is “did not bind”.
